The test system of one test is PC-3. Briefly: Antiproliferative activity against human PC-3 cells assessed as reduction in cell viability by MTT assay. It is filed as functional, cell-based.
For another test, the system named is HL-60. Kind of test: Antiproliferative activity against human HL-60 cells assessed as reduction in cell viability by MTT assay. Format: functional, cell-based.
Another test has as its system SNB-19. Briefly: Antiproliferative activity against human SNB-19 cells assessed as reduction in cell viability by MTT assay. It is filed as functional, cell-based.
Test [1] has as its system HCT-116. Briefly: Antiproliferative activity against human HCT-116 cells assessed as reduction in cell viability by MTT assay. Format: functional, cell-based. For orientation: Tetrazolium assays rely on reduction of a dye to a coloured formazan, in cell work by metabolically active cells.
The subject of test [2] is HCT-116. Briefly: Induction of cell cycle arrest in human HCT-116 cells assessed as accumulation at S phase at 20 uM after 24 hrs by PI-staining based flow cytometric analysis (reference value: 39.7%). It is filed as functional. Background: Flow cytometry measures light scatter and fluorescence of single cells or particles in a stream.
Test [3] has as its system HCT-116. Briefly: Induction of cell cycle arrest in human HCT-116 cells after 24 hrs by PI-staining based flow cytometric analysis. It is filed as functional.

One may read the IC50 as the concentration that gives 50% inhibition.

The source made the active and inactive calls. No cut-off for these calls is given here. Where only a bound is given, the exact number is not on record here.

On to `O=C1C=C(NCc2ccccn2)C(=O)c2ccccc21`, for which the IC50 in the test on PC-3 was found to be 16.5 µM; with HL-60, 4.59 µM; in the test with SNB-19, 23.1 µM; in the test on HCT-116 [1], 13.5 µM. For the same molecule, in the test on HCT-116 [2], the Activity was found to be 47.57%.

Take `Cc1ccc(S(=O)(=O)OCCNC2=CC(=O)c3ccccc3C2=O)cc1`: the IC50 in the test with PC-3 is 59.2 µM; in the test on HL-60, above 200 µM; with SNB-19, 21.1 µM; in the test on HCT-116 [1], 81.8 µM.

For the molecule `O=c1[nH]cc(F)c(=O)[nH]1` [FLUOROURACIL], the IC50 turned out to be 32.9 µM in the test with PC-3 and 19.3 µM in the test on HCT-116 [1]. The Activity in the test with HCT-116 [2] is 66.6%.

Consider `O=C1C=C(NCCCNc2ccnc3cc(Cl)ccc23)C(=O)c2ccccc21`, for which the IC50 with PC-3 amounted to 8.39 µM; in the test on HL-60, 4.78 µM; in the test with SNB-19, 16.9 µM; with HCT-116 [1], 11.5 µM. In addition, in the test with HCT-116 [3], the result was inactive.

On to `O=C1C=C(NCCO)C(=O)c2ccccc21`, for which the IC50 came to 107 µM in the test with PC-3, 49.8 µM in the test with HL-60, 108 µM in the test with SNB-19 and 70.3 µM in the test on HCT-116 [1].

As for `NCCCNC1=CC(=O)c2ccccc2C1=O`, the IC50 in the test with PC-3 stood at 63.2 µM; with HL-60 it was 30 µM; in the test on SNB-19 it was 71.3 µM; with HCT-116 [1], 59.6 µM.

With `COc1cccc2c1C(=O)c1c(O)c3c(c(O)c1C2=O)C[C@@](O)(C(=O)CO)C[C@@H]3O[C@H]1C[C@H](N)[C@H](O)[C@H](C)O1` [DOXORUBICIN], the half-inhibitory concentration (IC50) in the test on HL-60 was found to be 2.05 µM; in the test on SNB-19, 0.76 µM.

`CNC1=CC(=O)c2ccccc2C1=O`: the IC50 is 93.3 µM with PC-3, 41.4 µM in the test on HL-60, 114 µM in the test on SNB-19 and 55.7 µM in the test with HCT-116 [1].

For `O=C1C=C(N2CCCC2)C(=O)c2ccccc21`, the IC50 in the test with PC-3 is above 200 µM; with HL-60, 111 µM; in the test on SNB-19 it was above 200 µM; in the test with HCT-116 [1], 159 µM.

Consider `O=C1C=C(NCc2ccccc2)C(=O)c2ccccc21`, for which the IC50 in the test with PC-3 turned out to be 70.6 µM; in the test with HL-60 it was 86.5 µM; in the test with SNB-19, 80 µM; in the test with HCT-116 [1], 130 µM.

For `O=C1C=C(NCCCNc2nc(N3CCOCC3)nc(N3CCOCC3)n2)C(=O)c2ccccc21`, the IC50 in the test on PC-3 was determined as 41.8 µM; in the test with HL-60, 53.4 µM; in the test on SNB-19, 126 µM; in the test with HCT-116 [1], 57.5 µM.

For `CS(=O)(=O)OCCNC1=CC(=O)c2ccccc2C1=O`, the IC50 with PC-3 turned out to be 62.8 µM; in the test with HL-60, 27.5 µM; in the test on SNB-19 it was 31.2 µM; with HCT-116 [1], 16.3 µM.
